Data reported in patent publication US11632953B2, “Method for controlling hematophagous or sap-feeding arthropods” (Board of Supervisors of Louisiana State University and …, priority 2016, dated 2023).

Tests used:
[1] = tested on: honey bees (Apis mellifera); test: acute topical toxicity in adult honey bees; format: in vivo; conditions: 48 h, VU041 1 mg/bee (~10 μg/mg), bifenthrin 0.1 μg/bee
Experimental: Frames of late-stage honeybee (A. mellifera) pupae were taken from four colonies at The Ohio State University Honey Bee Lab in Wooster, Ohio, and maintained in a dark humid incubator at 34° C. (Darwin Chambers Co., St. Louis, Mo., model H024) until adult bees emerged. New adults were brushed from frames daily, placed in wooden screen cages (21×14×12 cm), and provided with 1:1 (w/w) sucrose in water.
Acute toxicity experiments in adult bees were performed as follows: Twenty-four hours after emergence, adult honey bees in cages were anaesthetized with carbon dioxide, divided into groups of approximately 20 bees each, and placed in plastic-coated paper cups (177 cm^3; UNIQ Paper Yogurt Cup, Frozen Dessert Supplies, Gilbert, Ariz.) covered with cotton cheesecloth. […] As a positive control, some bees were treated with 3 μl of bifenthrin (0.1 μg/μl). Negative control bees were treated with 3 μl of solvent. Applications were made using a 20 μl micropipette (Fisherbrand Finnpipette F2, Fisher Scientific, Pittsburgh, Pa.) with a disposable plastic tip. […] Toxicity to honey bees was recorded at 48 h, rather than the 24 h used for mosquitoes, to allow for the possibility of delayed toxicity due to the larger body size of the bee. Bees showing no movement 48 h after treatment were scored as dead.

hKir2.1 = hKir2.1 (Homo sapiens (Human), UniProt P63252); test: thallium (Tl+) flux assay; format: cell-based; conditions: SAR libraries; read-out: hKir2.1 IC50
AnKir1 [2] = target: T1, AnKir1 (Anopheles gambiae, UniProt A0A075M2J8); test: thallium (Tl+) flux assay; format: cell-based; conditions: SAR libraries; read-out: AnKir1 IC50
Experimental: The thallium flux assay is an in vitro method of measuring conductance through a potassium ion channel. Potassium channels are also permeable to thallium ions. The modulation of a K^+ channel will thus increase or decrease thallium ion flow through the channel and thus, alter the observed fluorescence of a thallium-specific indicator dye.
After 1 hr incubation at room temperature, the dye-loading solution was washed from the plates and replaced with 20 μL/well of assay buffer. The plates were transferred to a Hamamatsu Functional Drug Screening System 6000 (FDSS6000; Hamamatsu, Tokyo, Japan), where 20 μL/well of each of the test compounds in assay buffer was added and allowed to incubate with the cells for 20 min. After incubation, a baseline recording was collected at 1 Hz for 10 s (excitation 470±20 nm, emission 540±30 nm); a thallium stimulus buffer was then added (10 μL/well), and data were then collected for an additional 4 min. […] To ensure the small-molecule vehicle DMSO had no direct effect on AnKir1-dependent Tl^+ flux, the assay's tolerance to different doses of DMSO was evaluated. The robustness and reproducibility of the assay was determined by comparing Tl^+ flux through tetracycline-induced and tetracycline-free cells. The Z′ value was calculated as:
Z′=1−(3SDp+3SDn)/|meanp+meann| where SD is standard deviation, and p and n are control and uninduced flux values, respectively. To compare the effect of DMSO on AnKir1-mediated Tl^+ flux, a one-way ANOVA was performed with a Tukey's multiple comparison test. Prism software (GraphPad Software) was used to generate CRC from Tl^+ flux. Half-inhibition concentration (IC50) values were calculated from fits using a four parameter logistic equation.
Test compounds were transferred to daughter, 384-well polypropylene plates (Greiner Bio-One, Monroe, N.C.) with an Echo555 liquid handler (Labcyte, Sunnyvale, Calif.), and then diluted into assay buffer to generate a 2× stock in 0.6% DMSO (0.3% final). […] Concentration-response curves (CRCs) were generated by screening compounds at 3-fold dilution series (1 nM-30 μM).
Tl^+ flux data were analyzed using Excel (Microsoft Corp, Redmond, Wash.) with XLfit add-in (IDBS, Guildford, Surrey, UK), OriginPro (Origin Lab, Northampton, Mass.), and GraphPad Prism (GraphPad Software, San Diego, Calif., USA) software. Raw data were opened in Excel and each data point in a given trace was divided by the first data point from that trace (static ratio) followed by subtraction of data points from control traces generated with vehicle controls. The slope of the fluorescence increase beginning 5 s after Tl^+ addition and ending 15 s after Tl^+ addition was calculated.
To perform Tl+ flux assays, stably transfected T-Rex-HEK-293 cells expressing AnKir1 channels were cultured overnight in 384-well plates (20,000 cells/20 μL/well), black-walled, clear-bottomed BD Pure Coat amine-coated plates (BD, Bedford, Mass.) with a plating media containing DMEM, 10% dialyzed FBS and 1 μg/mL tetracycline. […] Following 1 hr incubation at room temperature, the dye-loading solution was washed from the plates and replaced with 20 μL/well of assay buffer.

[3] = tested on: isolated tick salivary gland; test: fluid secretion (salivation) in the isolated tick salivary gland, modified Ramsay assay; set-up: species or system Amblyomma americanum; conditions: for Effect on Salivation at 10 minutes (reduction) / reduction of salivary output / saliva secretion compared to control: isolated tick salivary gland
Drosophila melanogaster = test: whole plant or invertebrate; conditions: 100 μM
Experimental: A capillary feeding assay (CAFE) was used to quantify the volume of sucrose solution consumed over a period of time; it was performed essentially as described in W. W. Ja, G. B. Carvalho, E. M. Mak, N. N. de la Rosa, A. Y. Fang, J. C. Liong, T. Brummel, S. Benzer, Prandiology of Drosophila and the CAFE assay. Proceedings of the National Academy of Sciences of the United States of America 104, 8253-8256 (2007); published online EpubMay 15 (10.1073/pnas.0702726104). […] One adult fly was placed into a 2 mL glass vial with a screw lid that was pierced with a glass microcapillary tube having a truncated 200-0 pipette tip. The microcapillary tubes contained 5% (wt/vol) sucrose solution with a 5 μl mineral oil overlay to minimize evaporation. […] Concentrations of 100 μM dopamine and 100 μM fluphenazine were used to determine the influence of those agents on fly feeding. […] All dead flies were excluded from all time points of the study regardless of the time of death. Mean (n>25) values are shown in all figure panels, depicting total consumption.
Times spent feeding in Kir1 and GFP genetic knockdown studies were compared to control values for each day using one-way ANOVA with a Dunns multiple comparisons post-test. Statistical significance for all studies was P<0.05.

An. gambiae [4] = conditions: cited from earlier work; for Resistance Ratio (Akron compared to G3 strain): ED50 Akron/ED50 G3
An. gambiae [5] = test: topical toxicity bioassay in adult female An. gambiae; format: in vivo, Anopheles gambiae; conditions: 24 h
Experimental: Topical toxicity bioassays were performed on non-blood-fed adult female mosquitoes. The mosquitoes were chilled on ice for 1-3 minutes, during which 200 nL of compound (dissolved in 95% ethanol) was applied onto the abdomen of each insect with a handheld Hamilton® micro-applicator. […] […] The three resulting ED50 values were averaged. An ethanol-only treatment was included in each experiment as a negative control. Treated mosquitoes were transferred to small cages with access to 10% sucrose and held under rearing conditions for 24 h. Mortality was recorded at 24 h.

AnKir1 [6] = target: T1, AnKir1; test: whole-cell patch clamp electrophysiology; format: cell-based; conditions: whole-cell patch clamp, HEK-293T cells
Experimental: Patch electrodes were pulled from silanized 1.5 mm outer diameter borosilicate microhematocrit tubes using a P-1000 Flaming/Brown micropipette puller (Sutter Instrument, Novato Calif., USA). Electrode resistance ranged from 2-4 MΩ. Whole-cell currents were recorded under voltage-clamp conditions using an Axopatch 200B amplifier (Molecular Devices, Sunnyvale, Calif.). Electrical connections to the amplifier used Ag/AgCl wires and 3 M KCl/agar bridges. Electrophysiological data were collected at 5 kHz and filtered at 1 kHz. Data acquisition and analysis were performed using pClamp 9.2 software (Axon Instruments).
Transiently transfected HEK-293T cells expressing AnKir1 were voltage-clamped in the whole-cell configuration of the patch clamp technique. The extracellular bath solution contained (in mM): 135 NaCl, 5 KCl, 2 CaCl2), 1 MgCl2, 5 glucose, 10 HEPES free acid, pH 7.4, 290 mOsm/kg H2O. The pipette solution contained (in mM): 135 KCl, 2 MgCl2, 1 EGTA, 10 HEPES free acid, 2 Na2ATP (Roche, Indianapolis, Ind.), pH 7.3, 275 mOsm. Cells were voltage clamped at −75 mV, stepped to −120 mV for 200 msec, and then ramped to 120 mV at a rate of 2.4 mV/msec. Concentration-response curves (CRCs) were constructed by measuring the effects of increasing doses of inhibitors on AnKir1 currents at −120 mV. All recordings were made at room temperature (20-23° C.).

[7] = tested on: isolated tick salivary gland; test: ion secretion in saliva of the isolated tick salivary gland; set-up: species or system Amblyomma americanum
Aphis gossypii = test: aphid feeding on treated cotton leaves, electrophenegraph technique; format: in vivo; conditions: barium chloride at 300 micromolar
Experimental: FIGS. 14(A) and (B) depict measurements of aphid (Aphis gossypi) feeding on cotton leaves, as measured through the electrophenegraph technique; on control leaves and on leaves treated with the Kir inhibitor barium, respectively.
In aphids, a specific Kir channel blocker (barium chloride at 300 micromolar) was coated onto leaf tissue, and the feeding behavior of the adult aphid was analyzed through the classical electrophenegraph technique.

Aedes aegypti mosquitoes = test: mosquito blood feeding with compound exposure; format: in vivo; conditions: compound added to blood
Excerpt: Tolbutamide and glybenclamide are inhibitors of ATP-gated Kir channels.

hKir2.1, sequence (P63252 whole entry): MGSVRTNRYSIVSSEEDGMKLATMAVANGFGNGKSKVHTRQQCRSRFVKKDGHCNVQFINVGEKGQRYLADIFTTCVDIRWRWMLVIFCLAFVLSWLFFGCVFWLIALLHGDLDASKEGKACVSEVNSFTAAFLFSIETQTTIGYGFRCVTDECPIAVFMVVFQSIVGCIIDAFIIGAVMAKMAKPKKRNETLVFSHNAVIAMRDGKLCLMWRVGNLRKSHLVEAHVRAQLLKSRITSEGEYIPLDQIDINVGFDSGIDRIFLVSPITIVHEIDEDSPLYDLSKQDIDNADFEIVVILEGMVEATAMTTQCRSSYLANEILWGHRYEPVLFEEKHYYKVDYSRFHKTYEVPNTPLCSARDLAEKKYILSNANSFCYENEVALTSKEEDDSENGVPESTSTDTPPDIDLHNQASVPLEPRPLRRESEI
T1 sequence (A0A075M2J8 1-555): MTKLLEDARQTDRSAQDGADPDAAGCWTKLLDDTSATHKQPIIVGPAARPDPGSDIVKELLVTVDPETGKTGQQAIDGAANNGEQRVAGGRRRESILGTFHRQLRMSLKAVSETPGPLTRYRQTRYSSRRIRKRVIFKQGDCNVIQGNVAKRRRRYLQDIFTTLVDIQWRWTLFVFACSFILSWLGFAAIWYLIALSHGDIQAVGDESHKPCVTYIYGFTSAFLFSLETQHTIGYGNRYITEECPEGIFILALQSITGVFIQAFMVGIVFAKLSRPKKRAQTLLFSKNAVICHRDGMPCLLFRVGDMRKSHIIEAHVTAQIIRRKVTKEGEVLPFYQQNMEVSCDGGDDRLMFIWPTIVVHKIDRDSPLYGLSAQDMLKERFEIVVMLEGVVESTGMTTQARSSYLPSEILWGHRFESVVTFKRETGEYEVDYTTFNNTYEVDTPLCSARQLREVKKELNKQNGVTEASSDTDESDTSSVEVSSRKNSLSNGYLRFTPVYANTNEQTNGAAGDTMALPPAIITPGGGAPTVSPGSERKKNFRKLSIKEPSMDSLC

Cc1c(COC(=O)[C@@H]2[C@H](/C=C(\Cl)C(F)(F)F)C2(C)C)cccc1-c1ccccc1 (racemic) [bifenthrin, reference compound]
mortality of adult honey bees [1]: 100%

O=C1CCCc2c1ccn2CC(=O)N1CCCc2ccccc21 [Compound 4]
IC50 (hKir2.1): > 30 µM | IC50 (AnKir1 [2]): 12.1 µM

O=C(CN1CCCc2ccccc21)N1CCCc2ccccc21 [Compound 6]
IC50 (AnKir1 [2]): 8 µM

O=C(Cn1nc(C(F)(F)F)c2c1CCCC2)N1CCCC2CCCCC21 (stereo not shown) [Compound 9]
IC50 (hKir2.1): > 30 µM | IC50 (AnKir1 [2]): 6.7 µM

O=C(Cn1nc(C(F)(F)F)c2c1CCCC2)N1CCCC(c2ccccc2)C1 (stereo not shown) [Compound 12]
IC50 (hKir2.1): > 30 µM | IC50 (AnKir1 [2]): 5.6 µM

CC1CC(C)CN(C(=O)Cn2nc(C(F)(F)F)c3c2CCCC3)C1 (stereo not shown) [Compound 13]
IC50 (hKir2.1): > 30 µM | IC50 (AnKir1 [2]): 4.5 µM

O=C(Cn1nc(C(F)(F)F)c2c1CCCC2)N1CCOc2ccccc21 [Compound 14]
IC50 (AnKir1 [2]): 4.6 µM

CC(NC(=S)Nc1ccncc1)C(C)(C)C (stereo not shown) [DRS-1]
Effect on Salivation at 10 minutes (reduction) [3]: Reduced ~80%

CC(NC(=NC#N)Nc1cccnc1)C(C)(C)C (stereo not shown) [DRS-3]
Effect on Salivation at 10 minutes (reduction) [3]: Reduced ~100%

CC(C)(C)CNC(=C[N+](=O)[O-])Nc1ccncc1 [DRS-4]
Effect on Salivation at 10 minutes (reduction) [3]: Reduced ~83%

NCCc1ccc(O)c(O)c1 [Dopamine, reference compound]
increase in sucrose consumption vs control (Drosophila melanogaster; 1 day PE): 1.7 fold | increase in sucrose consumption vs control (Drosophila melanogaster; 2 days PE): 1.3 fold | increase in sucrose consumption vs control (Drosophila melanogaster; 3 days PE): 1.2 fold | increase in sucrose consumption vs control (Drosophila melanogaster; 4 days PE): 1.4 fold

CC1(C)C(C=C(Cl)Cl)C1C(=O)OCc1cccc(Oc2ccccc2)c1 (stereo not shown) [Permethrin]
Resistance Ratio (Akron compared to G3 strain) (An. gambiae [4]): 33 fold | ED50, Akron Strain (An. gambiae [4]; topical, Akron strain, from reference 21): 0.001 µg/mg | ED50, G3 Strain (An. gambiae [4]; topical, G3 strain, from reference 21): 3e-07 µg/mg

O=C(Cn1ncc2c1CCOC2)N1CCCc2ccccc21 [VU730]
IC50 (hKir2.1): > 30 µM | topical toxicity (An. gambiae [5]; adult females): ED50 similar to that for VU041 | ED50 (95% confidence limits), G3 Strain (An. gambiae [5]; topical, G3 strain, synergists 500 ng/insect four hours prior): 2.4 (2.1-2.9) A μg/mg | IC50 (AnKir1 [6]): 717 nM | IC50 (AnKir1 [2]): 2.4 µM

[Ba+2].[Cl-].[Cl-] [barium chloride]
K+ and Na+ ion secretion rates in salivary droplets [7]: significantly reduced | feeding phases (egestion, salivation, ingestion) (Aphis gossypii): inability of treated aphids to salivate | transepithelial fluid secretion ([3]; control 270 nl/5 min, preliminary): 141 nl/5 min | reduction of salivary output / saliva secretion compared to control [3]: approximately 60%

CNCCC(Oc1ccc(C(F)(F)F)cc1)c1ccccc1 (stereo not shown) [fluoxetine]
reduction of salivary output / saliva secretion compared to control [3]: 98%

O=C(NCCO[N+](=O)[O-])c1cccnc1 [nicorandil]
cations (K+ and Na+) concentrations excreted from the salivary glands [7]: significant reduction

CNC(=O)Oc1ccccc1OC(C)C [propoxur]
Resistance Ratio (Akron compared to G3 strain) (An. gambiae [4]): 101 fold

CCCCNC(=O)NS(=O)(=O)c1ccc(C)cc1 [tolbutamide]
reduction of total volume of blood consumed (Aedes aegypti mosquitoes): 99%
